Patent US6465007B1, “Transgene expression in polarized cells” (Genzyme Corporation, priority 1998, dated 2002)

Experiments:
polarized NHBE cells [1] = test: Binding and internalization of cationic lipid:pDNA complexes (TOTO-1 label, trypan blue quenching); settings: Table 1; grades Very Effective / Mildly Effective
Experimental: Cells were incubated with TOTO-1 or Rh-PE labeled complexes at 37° C. for the times noted in the figure legends. Following incubation, cells were washed 7 times with cold PBS and then fixed in 2% paraformadehyde for 20 min at 4° C. The membrane of the insert was removed and mounted using immuno-mount (Shandon, Pittsburgh, Pa.) containing 2 μg/ml DAPI (Molecular Probes). Bound and internalized complexes were observed under a fluorescence microscope (Olympus, AX-70). To observe only internalized complexes, cells were washed 2 times with cold PBS and then the fluorescence of surface bound complexes was quenched by a 10 min incubation with trypan blue (1 mg/ml; Diagnostic Systems, Inc., Gibbstown, N.J.) on ice. Cells were then washed an additional 5 times with cold PBS, fixed and mounted.
Polarized NHBE cells were cultured using a modified procedure based on the methods described by Yamaya et al., American Journal of Physiology, 265:L170-L177 (1993), Jiang et al., Science, 262:424-427 (1993) and Gray et al., American Journal of Respiratory Cell & Molecular Biology, 14:104-112 (1996). Briefly, first passage NHBE cells were plated at a density of 2.5×10^5 cells/cm^2 onto inserts (Millicell-PCF, 0.4 μm pore size, Millipore) coated with human placental collagen (Sigma). The culture medium was the same as that described above for growing NHBE cells as islands. Cultures were maintained under air-liquid interface conditions starting at day 3 following the initial seeding. Cells were considered ready for use when the trans-epithelial resistance was •1000 Ωcm^2.

mouse trachea = test: Intranasal instillation of Ad2βgal-4, X-gal staining of airways; assay type: in vivo
Experimental: Female BALB/c mice 9-12 weeks of age were purchased from Taconic (Germantown, N.Y.). In some groups, mice were instilled intranasally with 25 μl of a solution containing EGTA (pH 7.5), followed by 25 μl of 5% sucrose in PBS containing Adβgal-4 (2×10^8 IU). In other groups, mice were co-instilled with 25 μl of a solution prepared by mixing equal volumes of a 2× (4×10^8 IU/25 μl) Ad2βgal-4 solution in 10% sucrose with 2×EGTA prior to instillation.
Cytochemical localization of Ogal expression in the trachea was observed using 5-bromo-4-chloro-3-indolyl-β-D-galactopyranoside (X-gal; Sigma). In brief, cannulated mouse lungs were fixed for 10 min by infusion of a fixing solution (2% paraformaldehyde and 0.2% glutaraldehyde in PBS). The lungs were then rinsed twice with 50 mM glycine in PBS, filled with X-gal solution, and stained overnight. Staining was stopped by transfering the samples into the fixing solution.
Trachea with staining levels were defined on a scale of 0 to 3, 0 indicating no cells staining for βgal, and a value of 3 indicating a large number of cells positive for the transgene. To evaluate the effect of EGTA concentration on AdV-mediated gene transfer in the trachea, mice were pre-treated with various concentrations of EGTA 0.5 h before AdV instillation. In some animals, AdV and EGTA were co-instilled. To exclude the possibility that any observed enhancement of expression was due to a hyperosmotic effect of the EGTA solution, a 20% mannitol solution (osmolarity similar to 0.4M EGTA) was included as a control in both the pre-treatment and co-instillation models.

mouse nose = settings: cited from earlier work
polarized NHBE cells [2] = test: In vitro transfection with GL-67:pCF1-SEAP, secreted alkaline phosphatase in apical supernatant; assay type: cell-based, human; settings: 0.5 μg/ml, 18 h before and after transfection, with or without Ca2+-free medium; FIG. 2A
Experimental: Prior to transfection, polarized NHBE cells on inserts were incubated in either Opti-MEM, Opti-MEM containing 0.1% EGTA, or in Ca^2+-free media (Gibco) in both sides of the insert for 30 min at 37° C. The cells were then washed 3 times with Opti-MEM, and incubated with unlabeled GL-67:pCF1-SEAP (40:53 μM) for 4 h at 37° C., after which they were washed 3 times with Opti-MEM. One ml of culture medium then was added to the outside of the insert (basal side) and 100 μl added to the inside of the insert (apical side). The supernatant from the apical side was collected on day 2 after transfection, heated at 65° C. for 1 h to denature endogenous alkaline phosphatases (Berger et al., Gene, 1988), and assayed in triplicate for secreted alkaline phosphatase (SEAP) activity using an alkaline phosphatase reagent (Sigma) and human placental alkaline phosphatase (Calbiochem, La Jolla, Calif.) as a standard.
(§1) To inhibit NHBE cell proliferation, aphidicolin (0.5 μg/ml; Sigma) was added to culture medium on the basal side of the polarized NHBE cells for 18 h at 37° C. The cells were then transfected as described above except that the concentrations of cationic lipid and pDNA were 80 and 107 μM, respectively. After transfection, aphidicolin was present in the culture medium until the cells were harvested. […] Retinoic acid enhanced the inhibitory effect of aphidicolin on cell proliferation (Chou, R. H. et al., Cell & Tissue Kinetics, 18:387-97, 1985).

NHBE cells = test: Cell proliferation assay, [methyl-3H]-thymidine incorporation into DNA; assay type: cell-based, human
Experimental: The proliferation of NHBE cells was assessed by measuring the amount of [methyl-^3H] thymidine incorporation into DNA (Fasbender et al., Gene Therapy, 4:1173-1180, 1997). [Methyl-^3H] thymidine (5 μCi/ml; Amersham, Arlington Heights, Ill.) was added to culture medium on the basal side of polarized NHBE cells which had been pre-treated with either Opti-MEM or Ca^2+-free medium. After 4 h, both groups of cells were washed 3 times with PBS and then lysed in a buffer containing 0.2% SDS, 100 mM Tris (pH=7.0), 5 mM EDTA, 200 mM NaCl, and 0.5 mg/ml proteinase K. The lysate was incubated at 65° C. for 30 min, microcentrifuged for 5 min and the supernatant placed into a fresh tube. An equal volume of isopropanol was added to precipitate the DNA. The precipitated DNA pellet was washed twice with 70% ethanol, dried, and resuspended in a 10 mM Tris-HCl, 0.5 mM EDTA buffer, pH 8.0. The DNA concentration was determined using A260/280 measurements. Tritium counts were measured using a Beckman LS6500 scintillation counter.
as §1

[3] = Stabilization of cationic lipid:pDNA complexes by PEG-containing lipid; assay type: physicochemical; settings: 1.14 mol % relative to total lipid
Experimental: For example, at 1.14 mol % DMPE-PEG5000 (relative to the amount of total lipid), cationic lipid:pDNA complexes could be stabilized at pDNA concentrations exceeding 20 mM. Without PEG-containing lipids, a salt excipient, which is not preferred since an ionic excipient also depresses transfection activity, is required to maintain the lipid:pDNA ratio of the complex during certain methods such aerosolization. For more information regarding use of PEG derivatives the following references are specifically incorporated by reference: Simon J. Eastman et al., Human Gene Therapy, 8, pp. 765-773 (1997); Simon J. Eastman et al. Human Gene Therapy, p. 8, pp. 313-322 (1997).

CF patients = settings: cited from earlier work
[4] = 0.5 μg/ml in culture medium containing 50 nM retinoic acid

## CCCCCCCCCC(=O)[O-].[Na+] [Sodium Caprate, sodium caprate]
Polarized NHBE cells [1]
  Effects of Tight Junction Disrupting Compounds on Cationic Amphiphile: DNA Complex Binding: Mildly Effective

## OC[C@@H](O)[C@@H](O)[C@H](O)[C@H](O)CO [mannitol]
Mouse trachea; 20% pre-treatment, compared with AdV alone, FIG. 4
  X-gal staining in the trachea: not different
Mouse trachea; pre-treating with hyperosmotic solution, FIGS. 4 & 5A
  enhancement in gene transfer: No comparible enhancements

## polidocanol
Mouse nose
  AdV-mediated gene expression in respiratory epithelial cells: enhanced AdV-mediated gene expression

## C[C@@]1(CO)[C@H](O)CC[C@@]2(C)[C@H]1CC[C@H]1C[C@@H]3C[C@@]12CC[C@]3(O)CO [aphidicolin]
Polarized NHBE cells [2]
  effect on gene expression from polarized NHBE cells: no effect on gene expression
NHBE cells; [4]
  inhibition of proliferation of NHBE cells: sufficient to inhibit proliferation
  toxicity: minimal toxicity
NHBE cells; NHBE cells grown on plastic, presence of aphidicolin
  [methyl-3H]-thymidine incorporation: 6,600±600 cpm/μg DNA

## polyethylene glycol 5000-dimyristoylphosphatidylethanolamine [DMPE-PEG5000]
[3]
  pDNA concentration at which cationic lipid:pDNA complexes could be stabilized: exceeding 20 mM

## C[C@H](CCC(=O)NCC(=O)[O-])[C@H]1CC[C@H]2[C@@H]3[C@H](O)C[C@@H]4C[C@H](O)CC[C@]4(C)[C@H]3C[C@H](O)[C@]12C.[Na+] [Sodium glycocholate, sodium glycocholate]
Polarized NHBE cells [1]
  Effects of Tight Junction Disrupting Compounds on Cationic Amphiphile: DNA Complex Binding: Mildly Effective

## O=C(O)CN(CCN(CC(=O)O)CC(=O)O)CC(=O)O [EDTA, Ethylenediaminetetraacetic acid]
Polarized NHBE cells [1]
  Effects of Tight Junction Disrupting Compounds on Cationic Amphiphile: DNA Complex Binding: Very Effective
CF patients; 0.2 g in 10 ml injected, or 0.6 g in 300 ml nebulized over 24 h, via tracheostomy once per day for 3 days
  toxic side-effects: No toxic side-effects were noted
CF patients; children with CF, aerosol of 0.05M 3 times/day for 2 weeks
  adverse effects: no adverse effects
CF patients; children with CF, aerosol of 0.1 M 3 times/day for 2 weeks
  tolerability: Three out of ten could not tolerate
CF patients; same phase I trial
  respiratory function: remained unchanged
  serum calcium and magnesium levels: remained normal

## CCCCCCCCCC(=O)O[C@H](CC(=O)[O-])C[N+](C)(C)C [Decanoylcamitine, decanoylcarnitine]
Polarized NHBE cells [1]
  Effects of Tight Junction Disrupting Compounds on Cationic Amphiphile: DNA Complex Binding: Mildly Effective
